One compound from PMC8321398, “The discovery of a novel series of compounds with single-dose efficacy against juvenile and adult Schistosoma species” (PLoS Neglected Tropical Diseases, 2021) can be followed below.

In series [1] the test system is Adult S. mansoni. Nature of the series: In vitro adult S. mansoni worm assay. The format is cell-based. The conditions noted are these: Schistosoma mansoni, 120 h incubation. The text has this:
(§1) The Puerto Rican strain of S. mansoni was maintained in Biomphalaria glabrata and CD1 mice. Oncomelania hupensis (hupensis) infected with S. japonicum (Chinese strain) and Bulinus truncatus (truncatus) infected with Egyptian strain S. haematobium were obtained from BEI Resources, NIAID, NIH. Infection of mice for worm recovery was as previously described except that, whereas cercariae of S. mansoni and S. haematobium were obtained by shedding from infected snails under lights, cercariae of S. japonicum were obtained by gently crushing the snails. Furthermore, adult S. haematobium were recovered after 12 weeks following mouse infection.
(§2) In vitro efficacy was carried out as previously described. In brief, worms were recovered from infected mice by portal perfusion 3 weeks (for juveniles) or 6 weeks (for adults) post-infection using warm perfusion medium (Dulbecco’s Modified Eagle’s Medium [DMEM], 2mM L-glutamine, 100 Units/ml penicillin, 100μg/ml streptomycin, 20mM Hepes, 10 Units/ml heparin [Sigma, UK]). Worms were washed free of red blood cells using the perfusion medium, and finally suspended in complete medium (cDMEM: DMEM, 2mM L-glutamine, 100 Units/ml penicillin, 100μg/ml streptomycin, 10% FCS). The juvenile assays were carried out in 96-well plates, each well containing 6–8 worms in 200 μL cDMEM. The adult worm assay was in 24-well plates, each well containing 3 worm pairs in 1mL cDMEM. Both the juvenile and adult worm cultures were kept at 37° C, in an atmosphere of 5% CO2. Drug effects were determined on day 5 following drug treatment by assessing the viability of individual worms as described in [14].

Series [2] deals with Juvenile S. mansoni. Nature of the series: In vitro juvenile (3 week old) S. mansoni worm assay. Format: cell-based. The conditions noted are these: Schistosoma mansoni; Table 2; in vitro, 120 h incubation.
Description: as §1, §2

Series [3] relates to HepG2 cells. The series can be described thus: Cytotoxicity, HepG2 cells with MTT. The conditions noted are these: Table 2; hepG2 cell line, 72 h incubation. The format is cell-based, human. How it is done:
Activity against mammalian cells was determined using either of two standard assays. The first of these used MRC-5 cells with Alamar blue staining as previously described. The second used HepG2 cells monitored using 3-(4,5-dimethylthiazol-2-yl)-2,5-diphenyltetrazolium bromide (MTT) as previously described.

Series [4] relates to S. haematobium adult. The series can be described thus: In vitro adult S. haematobium worm assay. The format is cell-based. As to conditions: Schistosoma haematobium; S. haematobium, 120 h incubation; read-out: Sh adult EC50.
Description: as §1, §2

For series [5], the system named is S. japonicum adult. Nature of the series: In vitro adult S. japonicum worm assay. Format: cell-based. As to conditions: Schistosoma japonicum; S. japonicum, 120 h incubation; read-out: Sj adult EC50.
Description: as §1, §2

A short description of series [6]: In vivo efficacy, mouse model of adult (42-day old) S. mansoni infection. The conditions noted are these: female, CD1, mouse, plasma, po, 12.5 mg/kg, mouse, Adult infection, oral 12.5 mg/kg, formulation Aq; read-out: Plasma conc @24 h (efficacy experiment). The protocol:
(§3) Prior to in vivo efficacy experiments, a single animal was given a dose of drug (using the same formulation) that was twice as large as that planned for use in the efficacy experiments and was observed periodically for adverse clinical signs for 24h by trained veterinarians. Adverse clinical signs checked include postural defect, vocalization, oculo-nasal discharge, hypersalivation, change in activity, abnormal gait, respiration and pulse, piloerection, loss of pupillary reflex, eyelid reflex, chromodacryorrhea, reaction to handling, tremor, convulsions, prostration, diarrhoea, cachexia, emaciation. […] In vivo efficacy was assessed in female CD1 mice using methods based on those previously described. Mice were infected subcutaneously with 150 cercariae. Test compounds were suspended in 7% Tween-80 / 3% Ethanol / double distilled water and drug dispersal was facilitated by vortexing and using a sonicating water bath (Formulation “Aqueous”). Alternatively, drugs were first dissolved in DMSO, then diluted with corn oil to give a 1:19 DMSO:corn oil solution/suspension of test compound (Formulation “Corn oil”). Dosing was by oral gavage. Mice in the negative control groups were given the drug suspension vehicle only. Positive controls for treatment of adult, day 42 old, infections were treated with PZQ and those for juvenile, day 21 old, infections with artemether, which unlike PZQ is effective against the juvenile worm infections in mice. During and following treatment, mice were closely observed for any ill effects by staff experienced in animal handling. This involved individuals who were blinded to the treatment groups. Effects they were trained to look for included hunching, immobility, piloerection, subdued behaviour, diarrhoea and loss of body condition. None were seen. Worms were recovered by portal perfusion with citrate saline 8–14 days post treatment and counted. Differences between groups relative to the non-drug treated controls were assessed for statistical significance by Student’s unpaired t-test using GraphPad Prism Software. P values are presented as follows:- ns–P > 0.05 (not significant), * P ≤ 0.05, ** P ≤ 0.01, *** P ≤ 0.001, **** P ≤ 0.0001.
(§4) For pharmacokinetic analysis during the in vivo efficacy experiments individual animals were only sampled once. Samples were taken from one animal in each experimental group at each of 1, 4, 8 h and samples from two animals in each group were taken at 24 h.

Series [7] has as its system S. mansoni adult worms. Described as above. How it is done:
as §3, §4

Series [8] is described as follows: In vivo efficacy, mouse model of juvenile (21-day old) S. mansoni infection. The conditions noted are these: female, CD1, plasma, mouse, Juvenile infection, read-out: Plasma conc @24 h (efficacy experiment). The protocol:
as §3, §4

Series [9] relates to S. mansoni juvenile worms. The description is as above. As to conditions: mouse, Juvenile infection. The protocol: as §3, §4
The test system of series [10] is panel of 50 human kinases. Nature of the series: Kinase panel activity. As to conditions: 1 μM. The format is biochemical. The protocol: Kinase panel activity: Activity of compounds at 1 μM was assessed against a panel of 50 kinase enzymes (MKK1, JNK1, p38a MAPK, RSK1, PDK1, PKBa, SGK1, S6K1, PKA, ROCK 2, PRK2, PKCa, PKD1, MSK1, CAMKKb, CAMK1, SmMLCK, CHK2, GSK3b, PLK1, Aurora B, LKB1, AMPK (hum), MARK3, CK1δ, CK2, DYRK1A, NEK6, TBK1, PIM1, SRPK1, EF2K, HIPK2, PAK4, MST2, MLK3, TAK1, IRAK4, RIPK2, TTK, Src, Lck, BTK, JAK3, SYK, EPH-A2, HER4, IGF-1R, TrkA, VEG-FR) carried out by the MRC Protein Phosphorylation and Ubiquitinylation Unit at the University of Dundee, Dundee, DD1 5EH, UK.

[11] abbreviates: oral 12.5 mg/kg, formulation corn oil.

Read-outs that look alike come from different tables or passages of the source.

As for `Fc1ccc(-c2cn3c(-c4ccc5[nH]ncc5c4F)c(C(F)(F)F)nc3cn2)cc1C(F)(F)F` [LSHTM-3642, 3-(4-fluoro-1H-indazol-5-yl)-6-(4-fluoro-3-(trifluoromethyl)phenyl)-2-(trifluoromethyl)imidazo[1,2-a]pyrazine], the EC50 (usually the concentration that produces a half-maximal response) in series [1] (Table 2, in vitro, read-out: Adult S. mansoni EC50) is 0.027 µM; in series [1] (Table 3, S. mansoni, read-out: Sm adult EC50) it was 0.0273 µM; in series [2] it was 0.048 µM; in series [4], 0.023 µM; in [5], 0.389 µM. The “Cytotox TC50” value in [3] is on record as 16,600 nM. Further, the concentration at 24 h in series [6] worked out at 939 ng/mL; in [8] (setting [11]), 1320 ng/mL; in [8] (oral 25 mg/kg, formulation Aq), 1700 ng/mL. Also, the “in vivo EC50 against adult worms” value in series [7] (mouse model, single oral dose (Fig 9A)) is reported as less than 6.25 mg/kg. Moreover, the Worms remaining is listed as 1% in [7] (mouse, Adult infection, oral 12.5 mg/kg, formulation Aq); 5% in series [9] (setting [11]); 1.8% in series [9] (oral 25 mg/kg, formulation Aq). In addition, the “inhibition, panel of 50 human kinases” value in [10] is no more than 25%.
